Results as given in ChEMBL document CHEMBL5316298, “Discovery of Amphiphilic Xanthohumol Derivatives as Membrane-Targeting Antimicrobials against Methicillin-Resistant Staphylococcus aureus” (J Med Chem, 2023).
In brackets after ≈: the same amount, converted by molar mass. Activity calls are given as the source filed them. The calls are words filed in the database; no cut-off is given here.

Experiments:
Staphylococcus aureus [1] = test: Antibacterial activity against methicillin-resistant Staphylococcus aureus 3 infected in KM mouse assessed as reduction in inflammatory cells in subcutaneous tissue at 5 mg/kg administered into skin infection site measured after 24 hrs by H and E staining based analysis; type: functional, organism-based
Staphylococcus aureus [2] = test: Antibacterial activity against methicillin-resistant Staphylococcus aureus 3 infected in KM mouse assessed as reduction in bacterial load at infection site at 5 mg/kg administered into skin infection site measured after 24 hrs relative to control; type: functional; parameters: scale not given: the % may be the effect or the level left
Staphylococcus aureus [3] = test: Antibacterial activity against methicillin-resistant Staphylococcus aureus 3 infected in KM mouse assessed as reduction in bacterial load at infection site by measuring colony forming units at 5 mg/kg administered into skin infection site measured after 24 hrs; type: functional
Staphylococcus aureus [4] = test: Antibacterial activity against methicillin-resistant Staphylococcus aureus 3 infected in KM mouse assessed as reduction in abscesses on dorsal surface of skin at 5 mg/kg administered into skin infection site measured after 24 hrs; type: functional, organism-based
Staphylococcus aureus [5] = test: Antibacterial activity against methicillin-resistant Staphylococcus aureus 3 infected in KM mouse assessed as reduction in abscesses inside the skin at 5 mg/kg administered into skin infection site measured after 24 hrs; type: functional, organism-based
Staphylococcus aureus [6] = test: Antibacterial activity against methicillin-resistant Staphylococcus aureus 3 infected in KM mouse assessed as reduction in size of abscesses at 5 mg/kg administered into skin infection site measured after 24 hrs; type: functional, organism-based
[7] = Toxicity in KM mouse infected with methicillin-resistant Staphylococcus aureus 3 assessed as heart damage at 5 mg/kg administered into skin infection site measured after 24 hrs by H and E staining based analysis; type: organism-based; settings: in vivo, topical_or_ocular
[8] = Toxicity in KM mouse infected with methicillin-resistant Staphylococcus aureus 3 assessed as liver damage at 5 mg/kg administered into skin infection site measured after 24 hrs by H and E staining based analysis; type: organism-based; settings: in vivo, topical_or_ocular
[9] = Toxicity in KM mouse infected with methicillin-resistant Staphylococcus aureus 3 assessed as spleen damage at 5 mg/kg administered into skin infection site measured after 24 hrs by H and E staining based analysis; type: organism-based; settings: in vivo, topical_or_ocular
[10] = Toxicity in KM mouse infected with methicillin-resistant Staphylococcus aureus 3 assessed as lung damage at 5 mg/kg administered into skin infection site measured after 24 hrs by H and E staining based analysis; type: organism-based; settings: in vivo, topical_or_ocular
[11] = Toxicity in KM mouse infected with methicillin-resistant Staphylococcus aureus 3 assessed as kidneys damage at 5 mg/kg administered into skin infection site measured after 24 hrs by H and E staining based analysis; type: organism-based; settings: in vivo, topical_or_ocular
[12] = Toxicity in KM mouse infected with methicillin-resistant Staphylococcus aureus 3 assessed as histopathological abnormalities in heart at 5 mg/kg administered into skin infection site measured after 24 hrs by H and E staining based analysis; type: organism-based; settings: in vivo, topical_or_ocular
[13] = Toxicity in KM mouse infected with methicillin-resistant Staphylococcus aureus 3 assessed as histopathological abnormalities in spleen at 5 mg/kg administered into skin infection site measured after 24 hrs by H and E staining based analysis; type: organism-based; settings: in vivo, topical_or_ocular
[14] = Toxicity in KM mouse infected with methicillin-resistant Staphylococcus aureus 3 assessed as histopathological abnormalities in lungs at 5 mg/kg administered into skin infection site measured after 24 hrs by H and E staining based analysis; type: organism-based; settings: in vivo, topical_or_ocular
[15] = Toxicity in KM mouse infected with methicillin-resistant Staphylococcus aureus 3 assessed as multifocal enlargement of hepatocytes with cytoplasmic foamy swelling at 5 mg/kg administered into skin infection site measured after 24 hrs by H and E staining based analysis; type: organism-based; settings: in vivo, topical_or_ocular
[16] = Toxicity in KM mouse infected with methicillin-resistant Staphylococcus aureus 3 assessed as swelling of renal tubular epithelial cells with granular degeneration at 5 mg/kg administered into skin infection site measured after 24 hrs by H and E staining based analysis; type: organism-based; settings: in vivo, topical_or_ocular
[17] = Toxicity in KM mouse infected with methicillin-resistant Staphylococcus aureus 3 assessed as vacuolar degeneration in the kidneys at 5 mg/kg administered into skin infection site measured after 24 hrs by H and E staining based analysis; type: organism-based; settings: in vivo, topical_or_ocular
Staphylococcus aureus [18] = test: Antibacterial activity against Staphylococcus aureus ATCC 29213 incubated for 16 to 18 hrs by CLSI-based microbroth dilution method; type: functional; settings: time 16-18 hrs
Staphylococcus aureus [19] = test: Antibacterial activity against methicillin-resistant Staphylococcus aureus clinical isolate 1 incubated for 16 to 18 hrs by CLSI-based microbroth dilution method; type: functional; settings: time 16-18 hrs
Staphylococcus aureus [20] = test: Antibacterial activity against methicillin-resistant Staphylococcus aureus clinical isolate 2 incubated for 16 to 18 hrs by CLSI-based microbroth dilution method; type: functional; settings: time 16-18 hrs
Staphylococcus aureus [21] = test: Antibacterial activity against methicillin-resistant Staphylococcus aureus clinical isolate 3 incubated for 16 to 18 hrs by CLSI-based microbroth dilution method; type: functional; settings: time 16-18 hrs
Staphylococcus aureus [22] = test: Antibacterial activity against methicillin-resistant Staphylococcus aureus clinical isolate 4 incubated for 16 to 18 hrs by CLSI-based microbroth dilution method; type: functional; settings: time 16-18 hrs
Staphylococcus aureus [23] = test: Antibacterial activity against methicillin-resistant Staphylococcus aureus clinical isolate 5 incubated for 16 to 18 hrs by CLSI-based microbroth dilution method; type: functional; settings: time 16-18 hrs
Staphylococcus aureus [24] = test: Antibacterial activity against methicillin-resistant Staphylococcus aureus clinical isolate 6 incubated for 16 to 18 hrs by CLSI-based microbroth dilution method; type: functional; settings: time 16-18 hrs
Staphylococcus aureus [25] = test: Antibacterial activity against methicillin-resistant Staphylococcus aureus clinical isolate 7 incubated for 16 to 18 hrs by CLSI-based microbroth dilution method; type: functional; settings: time 16-18 hrs
Staphylococcus aureus [26] = test: Antibacterial activity against methicillin-resistant Staphylococcus aureus clinical isolate 8 incubated for 16 to 18 hrs by CLSI-based microbroth dilution method; type: functional; settings: time 16-18 hrs
Staphylococcus aureus [27] = test: Antibacterial activity against methicillin-resistant Staphylococcus aureus clinical isolate 9 incubated for 16 to 18 hrs by CLSI-based microbroth dilution method; type: functional; settings: time 16-18 hrs
Staphylococcus aureus [28] = test: Antibacterial activity against methicillin-resistant Staphylococcus aureus clinical isolate 10 incubated for 16 to 18 hrs by CLSI-based microbroth dilution method; type: functional; settings: time 16-18 hrs
[29] = Hemolytic activity in sheep erythrocytes incubated for 1 hr by absorbance based analysis; type: toxicity, cell-based, Ovis aries, Erythrocyte
Staphylococcus aureus [30] = test: Antibacterial activity against Staphylococcus aureus ATCC 29213 assessed as inhibition of bacterial growth by CLSI based microdilution broth assay; type: functional
Staphylococcus aureus [31] = test: Antibacterial activity against Staphylococcus aureus D5 assessed as inhibition of bacterial growth by CLSI based microdilution broth assay; type: functional
Staphylococcus aureus [32] = test: Antibacterial activity against Staphylococcus aureus A7 assessed as inhibition of bacterial growth by CLSI based microdilution broth assay; type: functional
Staphylococcus aureus [33] = test: Induction of drug resistance in Staphylococcus aureus ATCC 29213 assessed as fold increase in MIC at 0.5 times MIC measured for 20 passages relative to control; type: functional
Cell membrane = test: Induction of membrane depolarization in methicillin-resistant Staphylococcus aureus 3 assessed as increase in fluorescence intensity at 32 ug/ml measured every 2 mins for 20 mins by SYTOX-green dye based fluorescence assay; type: subcellular; settings: dose 32.0 µg/ml

Structure (SMILES) | MIC (Staphylococcus aureus [18]) [µg/mL] | MIC (Staphylococcus aureus [19]) [µg/mL] | MIC (Staphylococcus aureus [20]) [µg/mL] | MIC (Staphylococcus aureus [21]) [µg/mL] | MIC (Staphylococcus aureus [22]) [µg/mL] | MIC (Staphylococcus aureus [23]) [µg/mL] | MIC (Staphylococcus aureus [24]) [µg/mL] | MIC (Staphylococcus aureus [25]) [µg/mL] | MIC (Staphylococcus aureus [26]) [µg/mL] | MIC (Staphylococcus aureus [27]) [µg/mL] | MIC (Staphylococcus aureus [28]) [µg/mL] | HC50 at 1 h [29] [µg/mL] | also measured
CN[C@H](CC(C)C)C(=O)N[C@H]1C(=O)N[C@@H](CC(N)=O)C(=O)N[C@H]2C(=O)N[C@H]3C(=O)N[C@H](C(=O)N[C@H](C(=O)O)c4cc(O)cc(O)c4-c4cc3ccc4O)[C@H](O)c3ccc(c(Cl)c3)Oc3cc2cc(c3O[C@@H]2O[C@H](CO)[C@@H](O)[C@H](O)[C@H]2O[C@H]2C[C@](C)(N)[C@H](O)[C@H](C)O2)Oc2ccc(cc2Cl)[C@H]1O [VANCOMYCIN] | – | – | – | – | – | – | – | – | – | – | – | – | Activity (Staphylococcus aureus [1]): Active; Activity (Staphylococcus aureus [2]): 99.479%; Activity (Staphylococcus aureus [3]): 2.2 log10CFU/g; Activity (Staphylococcus aureus [4]): inactive; Activity (Staphylococcus aureus [5]): inactive; Activity (Staphylococcus aureus [6]): Active; Activity [7]: Non-Toxic; Activity [8]: Non-Toxic; Activity [9]: Non-Toxic; Activity [10]: Non-Toxic; Activity [11]: Non-Toxic; Activity [12]: Non-Toxic; Activity [13]: Non-Toxic; Activity [14]: Non-Toxic; Activity [15]: Non-Toxic; Activity [16]: Non-Toxic; Activity [17]: Non-Toxic
COc1cc(O)c(CC=C(C)C)c(O)c1C(=O)/C=C/c1ccc(O)cc1 [XANTHOHUMOL] | 16 (≈ 45.1 µM) | 8 (≈ 22.6 µM) | 8 (≈ 22.6 µM) | 8 (≈ 22.6 µM) | 4 (≈ 11.3 µM) | 8 (≈ 22.6 µM) | 16 (≈ 45.1 µM) | 8 (≈ 22.6 µM) | 8 (≈ 22.6 µM) | 8 (≈ 22.6 µM) | 8 (≈ 22.6 µM) | 196 | MIC (Staphylococcus aureus [30]): 15.6 µg/mL (≈ 44 µM); MIC (Staphylococcus aureus [31]): 15.6 µg/mL (≈ 44 µM); MIC (Staphylococcus aureus [32]): 15.6 µg/mL (≈ 44 µM)
CCn1cc(C(=O)O)c(=O)c2cc(F)c(N3CCNCC3)cc21 | – | – | – | – | – | – | – | – | – | – | – | – | fold change (FC) (Staphylococcus aureus [33]): 128
CCCCCNC(=O)C[N+](C)(C)CCCCOc1ccc(/C=C/C(=O)c2c(OC)cc3c(c2O)C=CC(C)(C)O3)cc1.[Br-] | 4 | 4 | 4 | 4 | 8 | 4 | 2 | 4 | 4 | 4 | 4 | 83.4 | –
COc1cc2c(c(O)c1C(=O)/C=C/c1ccc(OCCCCC[N+](C)(C)CC(=O)N(C(C)C)C(C)C)cc1)C=CC(C)(C)O2.[Br-] | 2 | 2 | 2 | 2 | 1 | 2 | 1 | 2 | 4 | 2 | 2 | 229 | –
CCCCNC(=O)C[N+](C)(C)CCCCCOc1ccc(/C=C/C(=O)c2c(OC)cc3c(c2O)C=CC(C)(C)O3)cc1.[Br-] | 2 | 2 | 2 | 2 | 2 | 1 | 1 | 2 | 2 | 4 | 2 | 826 | –
CCCCCNC(=O)C[N+](C)(C)CCCOc1ccc(/C=C/C(=O)c2c(OC)cc3c(c2O)C=CC(C)(C)O3)cc1.[Br-] | 2 | 2 | 4 | 2 | 4 | 2 | 4 | 4 | 4 | 4 | 4 | 169 | –
CCCCNC(=O)C[N+](C)(C)CCCOc1ccc(/C=C/C(=O)c2c(OC)cc3c(c2O)C=CC(C)(C)O3)cc1.[Br-] | 2 | 2 | 2 | 1 | 2 | 2 | 2 | 2 | 2 | 1 | 4 | 58.3 | –
CC[C@H](C)[C@H](NC(=O)CN)C(=O)NCC(=O)N[C@@H](C)C(=O)N[C@H](C(=O)N[C@@H](CC(C)C)C(=O)N[C@@H](CCCCN)C(=O)N[C@H](C(=O)N[C@@H](CC(C)C)C(=O)N[C@H](C(=O)N[C@H](C(=O)NCC(=O)N[C@@H](CC(C)C)C(=O)N1CCC[C@H]1C(=O)N[C@@H](C)C(=O)N[C@@H](CC(C)C)C(=O)N[C@H](C(=O)N[C@@H](CO)C(=O)N[C@@H](Cc1c[nH]c2ccccc12)C(=O)N[C@H](C(=O)N[C@@H](CCCCN)C(=O)N[C@@H](CCCNC(=N)N)C(=O)N[C@@H](CCCCN)C(=O)N[C@@H](CCCNC(=N)N)C(=O)N[C@@H](CCC(N)=O)C(=O)N[C@@H](CCC(N)=O)C(N)=O)[C@@H](C)CC)[C@@H](C)CC)[C@@H](C)O)[C@@H](C)O)C(C)C)C(C)C | – | – | – | – | – | – | – | – | – | – | – | – | Activity (Cell membrane): Active
COc1cc2c(c(O)c1C(=O)/C=C/c1ccc(OCCCC[N+](C)(C)CC(=O)N3CCSCC3)cc1)C=CC(C)(C)O2.[Br-] | 4 | 4 | 2 | 2 | 4 | 4 | 2 | 4 | 4 | 2 | 2 | 705 | –
CCCCN(CCCC)C(=O)C[N+](C)(C)CCCOc1ccc(/C=C/C(=O)c2c(OC)cc3c(c2O)C=CC(C)(C)O3)cc1.[Br-] | 2 | 2 | 2 | 2 | 2 | 1 | 1 | 1 | 1 | 2 | 2 | 434 | –
CCCNC(=O)C[N+](C)(C)CCCOc1ccc(/C=C/C(=O)c2c(OC)cc3c(c2O)C=CC(C)(C)O3)cc1.[Br-] | 4 | 4 | 2 | 2 | 4 | 2 | 2 | 2 | 2 | 2 | 4 | 210 | –
